In the supplement of paper PMC10307832:

How the values were obtained:
Assay in all cases: relative viability (nuclei count vs DMSO), 5 days (fraction); higher = more cells survive
[1] = compound: CC(C)N(CCCNC(=O)Nc1ccc(C(C)(C)C)cc1)C[C@H]1O[C@@H](n2ccc3c(N)ncnc32)[C@H](O)[C@@H]1O + CC(=O)Nc1cccc(-n2c(=O)n(C3CC3)c(=O)c3c(Nc4ccc(I)cc4F)n(C)c(=O)c(C)c32)c1 [Trametinib] (partner 0.02 µM)
Summary of the method: (§1)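 Dosing by pin tool came one day after lung cancer cell lines were seeded in 1536-well plates, using either one drug or a fixed anchor-drug dose plus five library-drug doses (not always all listed) in √10 steps. After 5 days, nuclei were counted on 4× images. Relative viability is treated-well nuclei count divided by vehicle-well nuclei count, and values are medians of duplicate plates.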

[2] = compound: CC(C)N(CCCNC(=O)Nc1ccc(C(C)(C)C)cc1)C[C@H]1O[C@@H](n2ccc3c(N)ncnc32)[C@H](O)[C@@H]1O + CC1(C)CCC(c2ccc(Cl)cc2)=C(CN2CCN(c3ccc(C(=O)NS(=O)(=O)c4ccc(N[C@H](CCN5CCOCC5)CSc5ccccc5)c(S(=O)(=O)C(F)(F)F)c4)cc3)CC2)C1 [Navitoclax] (partner 0.5 µM)
Summary of the method: as §1

Shikonin + Foretinib = compound: CC(C)=CC[C@@H](O)C1=CC(=O)c2c(O)ccc(O)c2C1=O [Shikonin] + COc1cc2c(Oc3ccc(NC(=O)C4(C(=O)Nc5ccc(F)cc5)CC4)cc3F)ccnc2cc1OCCCN1CCOCC1 [Foretinib] (partner 0.25 µM)
Summary of the method: as §1

Shikonin + Vorinostat = compound: CC(C)=CC[C@@H](O)C1=CC(=O)c2c(O)ccc(O)c2C1=O [Shikonin] + O=C(CCCCCCC(=O)Nc1ccccc1)NO [Vorinostat] (partner 1 µM)
Summary of the method: as §1

Cell Line | relative viability ([1]; first compound 0.08 µM) | relative viability ([1]; first compound 0.253 µM) | relative viability ([1]; first compound 0.8 µM) | relative viability ([1]; first compound 2.53 µM) | relative viability ([1]; first compound 8 µM) | relative viability ([2]; first compound 0.08 µM) | relative viability ([2]; first compound 0.253 µM) | relative viability ([2]; first compound 0.8 µM) | relative viability ([2]; first compound 2.53 µM) | relative viability ([2]; first compound 8 µM) | relative viability (Shikonin + Foretinib; first compound 0.01 µM) | relative viability (Shikonin + Foretinib; first compound 0.1 µM) | relative viability (Shikonin + Foretinib; first compound 0.3162 µM) | relative viability (Shikonin + Foretinib; first compound 1 µM) | relative viability (Shikonin + Vorinostat; first compound 0.01 µM) | relative viability (Shikonin + Vorinostat; first compound 0.1 µM) | relative viability (Shikonin + Vorinostat; first compound 0.3162 µM) | relative viability (Shikonin + Vorinostat; first compound 1 µM)
SK-MES-1 | 0.537 | 0.63 | 0.589 | 0.553 | 0.537 | 1.12 | 1.26 | 1.28 | 1.18 | 1.19 | 1.01 | 1.2 | 0.965 | 0.939 | 1.13 | 1.33 | 1.12 | 1.26
SW 1573 | 0.591 | 0.565 | 0.588 | 0.67 | 0.559 | 1.04 | 1.06 | 1.09 | 1.15 | 1.09 | 0.929 | 0.894 | 1.13 | 0.765 | 0.739 | 0.94 | 0.536 | 0.306
